# Values of other authors, collected in US20080317845A1, “Duloxetine Formulation” (priority 2007, published 2008).
# Counter-ions that a name gives are not always drawn.
smiles,measurement,value
"CNCC[C@H](Oc1cccc2ccccc12)c1cccs1 [duloxetine, (+)-(S)-N-methyl-y-(1-naphthyloxy)-2-thiophenepropylamine hydrochloride]",stability in acidic media,unstable
